Laboratory results: paper PMC6265310, “Purification, Characterization and in vitro Evaluation of Polymyxin A From Paenibacillus dendritiformis: An Underexplored Member of the Polymyxin Family” (Frontiers in Microbiology, 2018)
In brackets after ≈: the same amount, converted by molar mass. Where a SMILES comes first, the peptide text is derived from it. Bridges are numbered along the chain shown (N, C = ends). [ ]: non-standard residue; d: D form. The star is where a group is joined. Heptanoyl(6-Me) = CC(C)CCCCC(=O)*; dDab = NCC[C@@H](N)C(=O)O; Dab = NCC[C@H](N)C(=O)O

Columns and labels:
P. aeruginosa ATCC 27853 = assay: Time-kill kinetics; type: cell-based; conditions: P. aeruginosa ATCC 27853, 2xMIC
E. coli ATCC 25922 = assay: NPN uptake assay, outer membrane permeabilization; type: cell-based; conditions: E. coli ATCC 25922, 10 and 20 μg/ml, 1 h, compared with polymyxin B
[1] = test system: human embryonic kidney cell line (HEK293 ATCC CRL-1573); type: cell-based
Procedure: (§1) 3-(4,5-dimethylthiazol-2-yl)-2,5-diphenyltetrazolium bromide (MTT) assay was employed to examine the cytotoxicity against human leukemic monocyte cell line (THP-1 ATCC TIB-202) and human embryonic kidney cell line (HEK293 ATCC CRL-1573) as explained by [Kaur et al. (2017)]. Toxicity of both compounds was compared with polymyxin B and colistin at concentrations ranging from 62.5 to1000 μg/ml.

[2] = test system: human leukemic monocyte cell line (THP-1 ATCC TIB-202); type: cell-based
Procedure: as §1

[3] = test system: clinical MDR isolates (E. coli, K. pneumoniae, A. baumanii, P. aeruginosa); type: cell-based; conditions: in 25 of 31 clinical isolates
[4] = test system: Acinetobacter baumannii ATCC 19606; conditions: ATCC 19606
[5] = test system: Escherichia coli ATCC 25922; conditions: ATCC 25922
[6] = test system: Escherichia coli ATCC 35218; conditions: ATCC 35218
[7] = test system: Klebsiella pneumoniae ATCC BAA1706; conditions: ATCC BAA1706
[8] = test system: Klebsiella pneumoniae ATCC 700603; conditions: ATCC 700603
[9] = test system: Klebsiella pneumoniae ATCC 29665; conditions: ATCC 29665
[10] = test system: Klebsiella pneumoniae ATCC- BAA 2146; conditions: BAA 2146
[11] = test system: Pseudomonas aeruginosa ATCC 27853; conditions: ATCC 27853
[12] = test system: Vibrio parahaemolyticus ATCC17802
[13] = test system: Vibrio cholerae MTCC 3906
[14] = test system: Bacillus subtilis ATCC 6633; conditions: ATCC 6633
[15] = test system: Staphylococcus aureus ATCC 25923; conditions: ATCC 25923
[16] = test system: Enterococcus faecalis ATCC 51299; conditions: ATCC 51299
K. Pneumoniae GMCH 16 = conditions: GMCH 16
K. Pneumoniae GMCH10 = conditions: GMCH10
K. Pneumoniae 1573 = conditions: 1573
K. Pneumoniae GMCH13 = conditions: GMCH13
K. Pneumoniae GMCH12 = conditions: GMCH12
K. Pneumoniae 1428 = conditions: 1428
K. Pneumoniae GMCH04 = conditions: GMCH04
K. Pneumoniae GMCH11 = conditions: GMCH11
K. Pneumoniae 827 = conditions: 827
K. Pneumoniae B8 = conditions: B8
P. aeruginosa GMCH06 = conditions: GMCH06
P. aeruginosa PA1 = conditions: PA1
P. aeruginosa PA2 = conditions: PA2
P. aeruginosa PA3 = conditions: PA3
P. aeruginosa PA4 = conditions: PA4
P. aeruginosa PA5 = conditions: PA5
P. aeruginosa PA6 = conditions: PA6
E. coli 7534 = conditions: 7534
E. coli 9062 = conditions: 9062
E. coli 7210 = conditions: 7210
E. coli 14363 = conditions: 14363
E. coli 7932 = conditions: 7932
E. coli 3185 = conditions: 3185
E. coli 14504 = conditions: 14504
E. coli 13425 = conditions: 13425
E. coli 14084 = conditions: 14084
A. baumannii GMCH 14 = conditions: GMCH 14
A. baumannii GMCH18 = conditions: GMCH18
A. baumannii GMCH05 = conditions: GMCH05
A. baumannii AB1 = conditions: AB1
A. baumannii AB2 = conditions: AB2

CC(C)CCCCC(=O)N[C@@H](CCN)C(=O)N[C@H](C(=O)N[C@H](CCN)C(=O)N[C@H]1CCNC(=O)[C@H]([C@@H](C)O)NC(=O)[C@H](CCN)NC(=O)[C@H](CCN)NC(=O)[C@H]([C@@H](C)O)NC(=O)[C@@H](CC(C)C)NC(=O)[C@H](CCN)NC1=O)[C@@H](C)O [P1, polymyxin A2] ({Heptanoyl(6-Me)}-[Dab]T[dDab][Dab][Dab][dL]T[Dab][Dab]T; lactam 4-C)
time to kill (P. aeruginosa ATCC 27853): 4 h | NPN uptake (fluorescence intensity) (E. coli ATCC 25922): slightly higher NPN uptake | IC50 [1]: > 1000 µg/mL | IC50 [2]: approximately 1000 μg/ml | fold less MIC than the other polymyxins [3]: 2–4 fold | MIC [4]: 0.5 µg/mL (≈ 0.437 µM) | MIC [5]: 1 µg/mL (≈ 0.875 µM) | MIC [6]: 0.25 µg/mL (≈ 0.219 µM) | MIC [7]: 0.5 µg/mL (≈ 0.437 µM) | MIC [8]: 1 µg/mL (≈ 0.875 µM) | MIC [9]: 0.5 µg/mL (≈ 0.437 µM) | MIC [10]: 0.5 µg/mL (≈ 0.437 µM) | MIC [11]: 0.5 µg/mL (≈ 0.437 µM) | MIC [12]: 1 µg/mL (≈ 0.875 µM) | MIC [13]: >16 µg/mL | MIC [14]: 16 µg/mL (≈ 14 µM) | MIC [15]: >16 µg/mL | MIC [16]: >16 µg/mL | MIC (K. Pneumoniae GMCH 16): 0.5 µg/mL (≈ 0.437 µM) | MIC (K. Pneumoniae GMCH10): 1 µg/mL (≈ 0.875 µM) | MIC (K. Pneumoniae 1573): 0.5 µg/mL (≈ 0.437 µM) | MIC (K. Pneumoniae GMCH13): 0.5 µg/mL (≈ 0.437 µM) | MIC (K. Pneumoniae GMCH12): 0.5 µg/mL (≈ 0.437 µM) | MIC (K. Pneumoniae 1428): 1 µg/mL (≈ 0.875 µM) | MIC (K. Pneumoniae GMCH04): 0.25 µg/mL (≈ 0.219 µM) | MIC (K. Pneumoniae GMCH11): 1 µg/mL (≈ 0.875 µM) | MIC (K. Pneumoniae 827): 0.5 µg/mL (≈ 0.437 µM) | MIC (K. Pneumoniae B8): 0.5 µg/mL (≈ 0.437 µM) | MIC (P. aeruginosa GMCH06): 0.5 µg/mL (≈ 0.437 µM) | MIC (P. aeruginosa PA1): 1 µg/mL (≈ 0.875 µM) | MIC (P. aeruginosa PA2): 1 µg/mL (≈ 0.875 µM) | MIC (P. aeruginosa PA3): 1 µg/mL (≈ 0.875 µM) | MIC (P. aeruginosa PA4): 1 µg/mL (≈ 0.875 µM) | MIC (P. aeruginosa PA5): 1 µg/mL (≈ 0.875 µM) | MIC (P. aeruginosa PA6): 1 µg/mL (≈ 0.875 µM) | MIC (E. coli 7534): 0.25 µg/mL (≈ 0.219 µM) | MIC (E. coli 9062): 0.25 µg/mL (≈ 0.219 µM) | MIC (E. coli 7210): 0.25 µg/mL (≈ 0.219 µM) | MIC (E. coli 14363): 0.25 µg/mL (≈ 0.219 µM) | MIC (E. coli 7932): 0.25 µg/mL (≈ 0.219 µM) | MIC (E. coli 3185): 0.25 µg/mL (≈ 0.219 µM) | MIC (E. coli 14504): 0.25 µg/mL (≈ 0.219 µM) | MIC (E. coli 13425): 0.25 µg/mL (≈ 0.219 µM) | MIC (E. coli 14084): 0.25 µg/mL (≈ 0.219 µM) | MIC (A. baumannii GMCH 14): 0.5 µg/mL (≈ 0.437 µM) | MIC (A. baumannii GMCH18): 0.25 µg/mL (≈ 0.219 µM) | MIC (A. baumannii GMCH05): 1 µg/mL (≈ 0.875 µM) | MIC (A. baumannii AB1): 0.5 µg/mL (≈ 0.437 µM) | MIC (A. baumannii AB2): 1 µg/mL (≈ 0.875 µM)
